According to patent publication US20210292330A1, “PYRROLIDINE-FUSED HETEROCYCLES” (Erasca, Inc., priority 2020, published 2021):
Each block holds one compound with its values, some of them ahead of it.

Biological target: T1, KRAS 4B G12C protein (Homo sapiens, UniProt P01116, G12C)
T1 construct: This protein contained 188 amino acids in total, including an N-terminal 6-Histidine tag; made in house; host or cells: E. coli BL21
Assay: In vitro covalent adduct formation (CAF) assay by LC-MS
Format: binding
Settings: compound 10 μM, protein 5 μM, 22° C., percentage of protein bound by the compound
Outline: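 Recombinant His-TEV-tagged KRAS 4B G12C (residues 1-169, E. coli) at 5 μM in Tris-buffered saline pH 7.4 was incubated with 10 μM compound (4% DMSO) at 22° C. for one hour, sampling over time. Intact-mass LC-MS free:adduct ratios gave % protein bound; duplicates.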

SMILES: C=CC(=O)N1CCN(c2nc(OC[C@@H]3CCCN3C)nc3c2CN(Cc2cc(C(F)(F)F)ccc2C)C3)[C@@H](C)C1 [1-15]
CAF (10 minutes/60 minutes) at 10 micromolar: 10 minutes: 0%/ 0%
CAF (10 minutes/60 minutes) at 10 micromolar: 60 minutes: 0%/ 0%

SMILES: C=CC(=O)N1CCN(c2nc(OC[C@@H]3CCCN3C)nc3c2CN(C2CCc4ccccc42)C3)[C@@H](C#N)C1 (stereo partly shown) [1-150]
CAF (10 minutes/60 minutes) at 10 micromolar: 10 minutes: 21%
CAF (10 minutes/60 minutes) at 10 micromolar: 60 minutes: 31%

SMILES: C=CC(=O)N1CCN(c2nc(OC[C@@H]3CCCN3C3CC(=O)C3)nc3c2CN(C2CCc4ccccc42)C3)C[C@@H]1CC#N (stereo partly shown) [1-208]
CAF (10 minutes/60 minutes) at 10 micromolar: 10 minutes: 0%
CAF (10 minutes/60 minutes) at 10 micromolar: 60 minutes: 18%

SMILES: CN1CCC[C@H]1COc1nc2c(c(N3CCN(C(=O)C45CC4C5)[C@@H](CC#N)C3)n1)CN(Cc1ccccc1Cl)C2 (stereo partly shown) [1-317]
CAF (10 minutes/60 minutes) at 10 micromolar: 10 minutes: 0%/ 0%
CAF (10 minutes/60 minutes) at 10 micromolar: 60 minutes: 0%/ 0%

SMILES: C=CC(=O)N1C[C@H](C)N(c2nc(OC[C@@H]3CCCN3C)nc3c2CN(Cc2cc(O)ccc2F)C3)C[C@H]1C [1-32]
CAF (10 minutes/60 minutes) at 10 micromolar: 10 minutes: 7%
CAF (10 minutes/60 minutes) at 10 micromolar: 60 minutes: 41%

SMILES: C=CC(=O)N1C2COCC1CN(c1nc(OC[C@@H]3CCCN3C)nc3c1CN(Cc1cc(OC)ccc1Cl)C3)C2 [1-114]
CAF (10 minutes/60 minutes) at 10 micromolar: 10 minutes: 0%/ 0%
CAF (10 minutes/60 minutes) at 10 micromolar: 60 minutes: 0%/ 0%

SMILES: C=CC(=O)N1CCN(c2nc(OC[C@@H]3CCCN3C)nc3c2CN(Cc2c(C)cccc2C)C3)[C@@H](C)C1 [1-3]
CAF (10 minutes/60 minutes) at 10 micromolar: 10 minutes: 6%
CAF (10 minutes/60 minutes) at 10 micromolar: 60 minutes: 33%

SMILES: C=C(F)C(=O)N1CCN(c2nc(OC[C@@H]3CCCN3C)nc3c2CN(Cc2cc(NC)ncc2Cl)C3)C[C@@H]1CC#N [1-340]
CAF (10 minutes/60 minutes) at 10 micromolar: 10 minutes: 0%
CAF (10 minutes/60 minutes) at 10 micromolar: 60 minutes: 7%

SMILES: C=CC(=O)N1CCN(c2nc(OC[C@@H]3CCCN3C)nc3c2CN(C2CCc4ccccc42)C3)C[C@@H]1CO (stereo partly shown) [1-116]
CAF (10 minutes/60 minutes) at 10 micromolar: 10 minutes: 2%
CAF (10 minutes/60 minutes) at 10 micromolar: 60 minutes: 17%

SMILES: C=CC(=O)N1CCN(c2nc(OC[C@@H]3CCCN3C)nc3c2CN(C2CCc4ccccc42)C3)C[C@@H]1Cc1ncc[nH]1 (stereo partly drawn) [1-224, 1-((2S)-2-((1H-imidazol-2-yl)methyl)-4-(6-(2,3-dihydro-1H-inden-1-yl)-2-(((S)-1-methylpyrrolidin-2-yl)methoxy)-6,7-dihydro-5H-pyrrolo[3,4-d]pyrimidin-4-yl)piperazin-1-yl)prop-2-en-1-one]
CAF (10 minutes/60 minutes) at 10 micromolar: 10 minutes: 0%/ 0%
CAF (10 minutes/60 minutes) at 10 micromolar: 60 minutes: 0%/ 0%

SMILES: C=CC(=O)N1CCN(c2nc(OC[C@@H]3CCCN3C)nc3c2CN(Cc2cc(Cl)ccc2Cl)C3)[C@@H](C)C1 [1-41]
CAF (10 minutes/60 minutes) at 10 micromolar: 10 minutes: 3%
CAF (10 minutes/60 minutes) at 10 micromolar: 60 minutes: 22%

SMILES: C=CC(=O)N1CCN(c2nc(-c3nnc(C)o3)nc3c2CN(C2CCc4ccccc42)C3)C[C@@H]1CC#N (stereo partly drawn) [1-197, 2-((2S)-1-acryloyl-4-(6-(2,3-dihydro-1H-inden-1-yl)-2-(5-methyl-1,3,4-oxadiazol-2-yl)-6,7-dihydro-5H-pyrrolo[3,4-d]pyrimidin-4-yl)piperazin-2-yl)acetonitrile]
CAF (10 minutes/60 minutes) at 10 micromolar: 10 minutes: 24%
CAF (10 minutes/60 minutes) at 10 micromolar: 60 minutes: 52%

SMILES: C=CC(=O)N1CCN(c2nc(OC[C@@H]3CCCN3C)nc3c2CN(C2CCc4ccccc42)C3)C[C@@H]1CS(C)(=O)=O (stereo partly shown) [1-200]
CAF (10 minutes/60 minutes) at 10 micromolar: 10 minutes: 0%
CAF (10 minutes/60 minutes) at 10 micromolar: 60 minutes: 2%

SMILES: C=CC(=O)N1CC2CC(=O)CC(C1)N2c1nc(O[C@@H]2CN(C)C[C@H]2OC)nc2c1CN(C1CCc3ccccc31)C2 (stereo partly shown) [1-252]
CAF (10 minutes/60 minutes) at 10 micromolar: 10 minutes: 0%/ 0%
CAF (10 minutes/60 minutes) at 10 micromolar: 60 minutes: 0%/ 0%

SMILES: C=CC(=O)N1CCN(c2nc(OC[C@@H]3CCCN3C)nc3c2CN(Cc2c(F)cccc2F)C3)[C@@H](C)C1 [1-14]
CAF (10 minutes/60 minutes) at 10 micromolar: 10 minutes: 0%
CAF (10 minutes/60 minutes) at 10 micromolar: 60 minutes: 8%

SMILES: C=C(F)C(=O)N1CCN(c2nc(OC[C@@H]3CCCN3C)nc3c2CN(Cc2nc(N)cc(C)c2C(F)(F)F)C3)C[C@@H]1CC#N [1-334]
CAF (10 minutes/60 minutes) at 10 micromolar: 10 minutes: 79%
CAF (10 minutes/60 minutes) at 10 micromolar: 60 minutes: 86%

SMILES: C=CC(=O)N1CCN(c2nc(OC[C@@H]3CCCN3C)nc3c2CN(Cc2nc(OC)ccc2Cl)C3)[C@@H](C)C1 [1-65]
CAF (10 minutes/60 minutes) at 10 micromolar: 10 minutes: 0%
CAF (10 minutes/60 minutes) at 10 micromolar: 60 minutes: 2%

SMILES: C=CC(=O)N1CCN(c2nc(OC[C@@H]3CCCN3C)nc3c2CN(C2CCc4ccccc42)C3)C[C@H]1C(N)=O (stereo partly shown) [1-163]
CAF (10 minutes/60 minutes) at 10 micromolar: 60 minutes: NA/ 55%

SMILES: C=CC(=O)N1CCN(c2nc(OC[C@@H]3CCCN3CC(F)F)nc3c2CN(C2CCc4ccccc42)C3)C[C@@H]1CC#N (stereo partly shown) [1-147]
CAF (10 minutes/60 minutes) at 10 micromolar: 10 minutes: 78%
CAF (10 minutes/60 minutes) at 10 micromolar: 60 minutes: 86%

SMILES: C=CC(=O)N1CC2CCC1CN2c1nc(OC[C@@H]2CCCN2C)nc2c1CN(Cc1cc(O)ccc1Cl)C2 (stereo partly shown) [1-160]
CAF (10 minutes/60 minutes) at 10 micromolar: 10 minutes: 34%
CAF (10 minutes/60 minutes) at 10 micromolar: 60 minutes: 67%

SMILES: C=CC(=O)N1CCN(c2nc(OC[C@@H]3CCCN3C)nc3c2CN(Cc2c(Cl)cccc2OC(F)F)C3)CC1 [1-94]
CAF (10 minutes/60 minutes) at 10 micromolar: 10 minutes: 0%/ 0%
CAF (10 minutes/60 minutes) at 10 micromolar: 60 minutes: 0%/ 0%

SMILES: C=CC(=O)N1CCN(c2nc(OC[C@@H]3CCCN3C)nc3c2CN(C2CCc4ccccc42)C3)C[C@H]1C#N (stereo partly shown) [1-145]
CAF (10 minutes/60 minutes) at 10 micromolar: 10 minutes: 60%
CAF (10 minutes/60 minutes) at 10 micromolar: 60 minutes: 74%

SMILES: C=CC(=O)N1CCN(c2nc(OC[C@@H]3CCCN3C)nc3c2CN(C2CCc4ccccc42)C3)C[C@@H]1C(O)C(F)(F)F (stereo partly shown) [1-117]
CAF (10 minutes/60 minutes) at 10 micromolar: 10 minutes: 0%
CAF (10 minutes/60 minutes) at 10 micromolar: 60 minutes: 4%

SMILES: C=CC(=O)N1C2CCCC1CN(c1nc(OC[C@@H]3CCCN3C)nc3c1CN(Cc1cc(OC)ccc1Cl)C3)C2 [1-148]
CAF (10 minutes/60 minutes) at 10 micromolar: 10 minutes: 0%/ 0%
CAF (10 minutes/60 minutes) at 10 micromolar: 60 minutes: 0%/ 0%

Other lines, results leading:

CAF (10 minutes/60 minutes) at 10 micromolar: 10 minutes: 61%
CAF (10 minutes/60 minutes) at 10 micromolar: 60 minutes: 86%
SMILES: C=CC(=O)N1CCN(c2nc(OC[C@@H]3CCCN3C)nc3c2CN(C(C)c2cc(F)ccc2C)C3)C[C@@H]1CC#N (stereo partly shown) [1-73]

CAF (10 minutes/60 minutes) at 10 micromolar: 10 minutes: 94%
CAF (10 minutes/60 minutes) at 10 micromolar: 60 minutes: 98%
SMILES: C=CC(=O)N1CCN(c2nc(OC[C@@H]3CCCN3C)nc3c2CN(Cc2ccccc2C)C3)C[C@@H]1CC#N [1-45]

CAF (10 minutes/60 minutes) at 10 micromolar: 10 minutes: 49%
CAF (10 minutes/60 minutes) at 10 micromolar: 60 minutes: 89%
SMILES: C=CC(=O)N1CCN(c2nc(OC[C@@H]3CCCN3C)nc3c2CN(Cc2c(Cl)ccc4c2CCCO4)C3)C[C@@H]1CC#N [1-158]

CAF (10 minutes/60 minutes) at 10 micromolar: 10 minutes: 98%
CAF (10 minutes/60 minutes) at 10 micromolar: 60 minutes: 99%
SMILES: C=CC(=O)N1CCN(c2nc(OC[C@@H]3CCCN3C)nc3c2CN(Cc2cc(O)ccc2F)C3)C[C@@H]1CC#N [1-46]

CAF (10 minutes/60 minutes) at 10 micromolar: 10 minutes: 68%
CAF (10 minutes/60 minutes) at 10 micromolar: 60 minutes: 73%
SMILES: C=CC(=O)N1CCN(c2nc(OC[C@@H]3CCCN3C)nc3c2CN(Cc2cc(F)ccc2C(C)C)C3)C[C@@H]1CC#N [1-172]

CAF (10 minutes/60 minutes) at 10 micromolar: 10 minutes: 0%/ 0%
CAF (10 minutes/60 minutes) at 10 micromolar: 60 minutes: 0%/ 0%
SMILES: C=CC(=O)N1CCN(c2nc(OC[C@@H]3CCCN3C)nc3c2CN(Cc2c(Cl)cccc2OC)C3)C[C@@H]1CC(F)(F)F [1-125]

CAF (10 minutes/60 minutes) at 10 micromolar: 10 minutes: 59%
CAF (10 minutes/60 minutes) at 10 micromolar: 60 minutes: 89%
SMILES: C=CC(=O)N1CCN(c2nc(OC[C@@H]3CCCN3C)nc3c2CN(Cc2ncccc2Cl)C3)C[C@@H]1CC#N [1-113]

CAF (10 minutes/60 minutes) at 10 micromolar: 10 minutes: 0%
CAF (10 minutes/60 minutes) at 10 micromolar: 60 minutes: 2%
SMILES: C=C(F)C(=O)N1CCN(c2nc(OC[C@@H]3CCCN3C)nc3c2CN(Cc2n[nH]cc2C)C3)C[C@@H]1CC#N [1-344]

CAF (10 minutes/60 minutes) at 10 micromolar: 10 minutes: 46%
CAF (10 minutes/60 minutes) at 10 micromolar: 60 minutes: 84%
SMILES: C=CC(=O)N1CCN(c2nc(OC[C@@H]3CCCN3C)nc3c2CN(Cc2cccc4ocnc24)C3)C[C@@H]1CC#N [1-204]

CAF (10 minutes/60 minutes) at 10 micromolar: 10 minutes: 57%
CAF (10 minutes/60 minutes) at 10 micromolar: 60 minutes: 74%
SMILES: C=CC(=O)N1CCN(c2nc(OC[C@@H]3CCCN3C)nc3c2CN(C(C)c2ccccc2Cl)C3)C[C@@H]1CC#N (stereo partly shown) [1-120]

CAF (10 minutes/60 minutes) at 10 micromolar: 10 minutes: 93%
CAF (10 minutes/60 minutes) at 10 micromolar: 60 minutes: 94%
SMILES: C=C(F)C(=O)N1CCN(c2nc(OC[C@@H]3CCCN3C)nc3c2CN(Cc2c(CC)ccc(O)c2C)C3)C[C@@H]1CC#N [1-253]

CAF (10 minutes/60 minutes) at 10 micromolar: 10 minutes: 35%
CAF (10 minutes/60 minutes) at 10 micromolar: 60 minutes: 85%
SMILES: C=CC(=O)N1CCN(c2nc(OC[C@@H]3CCCN3C)nc3c2CN(c2cccc4ccccc24)C3)C[C@@H]1CC#N [1-9, 2-[(2S)-4-(2-{[(2S)-1-methylpyrrolidin-2-yl]methoxy}-6-(naphthalen-1-yl)-5H,7H-pyrrolo[3,4-d]pyrimidin-4-yl)-1-(prop-2-enoyl)piperazin-2-yl]acetonitrile]

CAF (10 minutes/60 minutes) at 10 micromolar: 10 minutes: 28%
CAF (10 minutes/60 minutes) at 10 micromolar: 60 minutes: 74%
SMILES: C=CC(=O)N1CCN(c2nc(OC[C@@H]3CCCN3C)nc3c2CN(Cc2cc(F)cc(F)c2)C3)C[C@@H]1CC#N [1-12]
